Assay [1] relates to male ICR mice. As to the kind of experiment: Forced swim test in mice (antidepressant effect). The following applies: for antidepressant effect: overall conclusion in words, forced swim test. Format: in vivo, mouse. The source says:
(§1) The isoquinoline derivative rep-resented by formula (I) has a marked effect in the forced swim test, which is the animal model for mood disorder, and in the elevated plus-maze test, which is the animal model for anxiety disorder. Thus, the isoquinoline derivative can be used as a drug for curing or preventing mood disorder or anxiety disorder of mammal and, in particular, human beings. It may also be used in manufacturing of a medicament for curing or preventing mood disorder or anxiety disorder. The evaluation using the above-described animal models can be conducted by a method described in published references [Nature vol. 266, 730 (1977) or Jpn. J. Psychopharmacol vol. 15, 125 (1995)], but the method is not limited to this.
Assessment of antidepressant effect by the forced swim test in mice
In the experiment, male ICR mice were used. In the forced swim test, the tank for forced swim used was a transparent cylindrical tank made of plastic (inner diameter: 10 cm, height: 30 cm), and water at 25° C. was contained up to 14 cm in height. A mouse was placed in water, and its swimming time during 2 to 6 minutes after placement was measured. The drug was subcutaneously administered 30 minutes before testing. The vertical axis indicates the swimming time (sec) during the measurement time (4 min). The open column indicates a saline-treated group and the hatched columns indicate Compound 1 treatment groups. All data are indicated by average ±standard error. In a significance test, the difference was assumed to be significant at a significance level of 5% or less by Dunnett's multiple comparison. In the test, the drug is assumed to have an antidepressant effect when there is an increase in swimming time under administration.

The test system of assay [2] is male SD rats. As to the kind of experiment: Elevated plus-maze test in rats (antianxiety effect). Format: in vivo, rat. The following applies: for antianxiety effect: overall conclusion in words, elevated plus-maze test.
Source text: as §1
Assessment of Antianxiety Effect by the Elevated Plus-Maze Test in Rats
The experiment was conducted on male SD rats. In the elevated plus-maze test, the elevated plus-maze (manufactured by NeuroScience, Inc.) consisting of closed arms and open arms was used. In the experiment, a rat was placed on an open arm 30 minutes after the drug administration (subcutaneous administration), and the number of entries to the open and closed arms and the time spent in the open arms were measured. The test was conducted for 3 minutes. The rat was assumed to have made entries when all four legs have entered the arm. The ratio of the time spent in the open arms and the ratio of the entries to the open arms were calculated according to the following equations:
Ratio of the time spent in the open arms (%)={(time spent in the open arms)/(total time)}×100
Ratio of the entries to the open arms (%)={(number of entries to the open arms)/(total number of entries)}×100
The vertical axis on the left indicates the ratio of the time spent in the open arms (%) and the ratio of the entries to the open arms (%). The vertical axis on the right indicates the total number of entries. The horizontal axis indicates a control group and treatment groups. Open columns indicate the ratio of the time spent in the open arms (%) and hatched columns indicate the ratio of the entries to the open arms (%). Closed circles indicate the total number of entries. All data are indicated by average ±standard error. In a significance test, the difference was assumed to be significant at a significance level of 5% or less by Dunnett's multiple comparison. In the test, the drug is assumed to have an antianxiety effect when there are an increase in time spent on open arms and an increase in ratio of entries to open arms under administration.

Where [3] appears, read: FIG. 1, treatment groups vs saline-treated control, s.c., Dunnett's multiple comparison, 5% level.

This note sets out measurements from patent US20030166656A1, “Therapeutic or preventive medicines for mood disorders or anxiety disorders” (priority 2003, published 2003).

Molecules are shown by their SMILES.

As for `Cc1c2c(nc3ccccc13)C[C@@]1(c3cccc(O)c3)CCN(C)C[C@@H]1C2` (relative stereo) [Compound 3, 2-methyl-4aα-(3-hydroxyphenyl)-11-methyl-1,2,3,4,4a,5,12,12aβ-octahydro-quinolino [2,3-g]isoquinoline], the antidepressant effect entry in assay [1] is given as “significant antidepressant effect”. The antianxiety effect entry in assay [2] is “significant antianxiety effects”.
For the molecule `CN1CC[C@]2(c3cccc(O)c3)Cc3nc4ccccc4cc3C[C@@H]2C1` [Compound 1, (4aS,12aS)-2-methyl-4a-(3-hydroxyphenyl)-1,2,3,4,4a,5,12,12a-octahydroquinolino [2,3-g]isoquinoline], the swimming time result in assay [1] (FIG. 2, treatment groups vs saline-treated control, s.c., Dunnett's multiple comparison, 5% level) was “dose-dependent significant increase”. Moreover, the antidepressant effect entry in assay [1] is “confirmed to have an antidepressant effect”. Also, in assay [2] (setting [3]), the “ratio of the entries to open arms” value is recorded as “dose-dependent significant increase” and the “time spent in open arms” value is “dose-dependent significant increase”. The antianxiety effect entry in assay [2] is “confirmed to have an antianxiety effect”.
Regarding `Oc1cccc([C@]23CCN(CCc4ccccc4)C[C@@H]2Cc2cc4ccccc4nc2C3)c1` (relative stereo) [Compound 6, 2-phenethyl-4aα-(3-hydroxyphenyl)-1,2,3,4,4a,5,12,12aβ-octahydro-quinolino [2,3-g]isoquinoline], the antidepressant effect entry in assay [1] is reported as “significant antidepressant effect”. The antianxiety effect entry in assay [2] is “significant antianxiety effects”.
The corresponding values for `CN1CC[C@]2(c3cccc(O)c3)Cc3nc4ccccc4c(N)c3C[C@H]2C1` (relative stereo) [Compound 5, 2-methyl-4aα-(3-hydroxyphenyl)-11-amino-1,2,3,4,4a,5,12,12aβ-octahydro-quinolino,[2,3-g]isoquinoline] are “significant antidepressant effect” and “significant antianxiety effects”.
